# Assay results published in PubChem BioAssay AID1745844 (Carcinogenic Potency Database (CPDB), 2022).
# Values joined by “and” are separate entries in the source; they are usually repeats but may differ in a detail not shown here. Equal entries are not always repeated.
# System: rodent lifetime carcinogenesis bioassay, tumor incidence TD50
# Assay: chronic cancer bioassays in animals – CPDB, compiled studies (AID 1745844)
# Conditions: inhaled
compound,measurement,setting,value
FC(F)=C(F)F,TD50,"mouse, strain B6C3F1, females, site: Harderian gland, lesion: adenoma, dosed 95 weeks, study length 95 weeks",1470 mg/kg/day
same,TD50,"mouse, strain B6C3F1, females, site: all sites + liver, lesion: histiocytic sarcoma + hemangioma + hemangiosarcoma + hepatocellular adenoma + hepatocellular carcinoma, dosed 95 weeks, study length 95 weeks",54 mg/kg/day
same,TD50,"mouse, strain B6C3F1, females, site: all sites, lesion: hemangioma + hemangiosarcoma, dosed 95 weeks, study length 95 weeks",61.3 mg/kg/day
same,TD50,"mouse, strain B6C3F1, females, site: all sites, lesion: hemangioma, dosed 95 weeks, study length 95 weeks",835 mg/kg/day
same,TD50,"mouse, strain B6C3F1, females, site: all sites, lesion: hemangiosarcoma, dosed 95 weeks, study length 95 weeks",66.5 mg/kg/day
same,TD50,"mouse, strain B6C3F1, females, site: all sites, lesion: histiocytic sarcoma, dosed 95 weeks, study length 95 weeks",176 mg/kg/day
same,TD50,"mouse, strain B6C3F1, females, site: any site (literature study), lesion: several types, types named in the paper, dosed 95 weeks, study length 95 weeks",48.4 mg/kg/day
same,TD50,"mouse, strain B6C3F1, females, site: liver, lesion: hemangioma + hemangiosarcoma, dosed 95 weeks, study length 95 weeks",61.3 mg/kg/day
same,TD50,"mouse, strain B6C3F1, females, site: liver, lesion: hemangioma, dosed 95 weeks, study length 95 weeks",530 mg/kg/day
same,TD50,"mouse, strain B6C3F1, females, site: liver, lesion: hemangiosarcoma, dosed 95 weeks, study length 95 weeks",66.5 mg/kg/day
same,TD50,"mouse, strain B6C3F1, females, site: liver, lesion: hepatocellular adenoma + hepatoblastoma + hepatocellular carcinoma, dosed 95 weeks, study length 95 weeks",63.3 mg/kg/day
same,TD50,"mouse, strain B6C3F1, females, site: liver, lesion: hepatocellular adenoma + hepatocellular carcinoma, dosed 95 weeks, study length 95 weeks",63.3 mg/kg/day
same,TD50,"mouse, strain B6C3F1, females, site: liver, lesion: hepatocellular adenoma, dosed 95 weeks, study length 95 weeks",217 mg/kg/day
same,TD50,"mouse, strain B6C3F1, females, site: liver, lesion: hepatocellular carcinoma, dosed 95 weeks, study length 95 weeks",80.8 mg/kg/day
same,TD50,"mouse, strain B6C3F1, females, site: lung, lesion: alveolar/bronchiolar adenoma + alveolar/bronchiolar carcinoma + carcinoma, dosed 95 weeks, study length 95 weeks",1640 mg/kg/day
same,TD50,"mouse, strain B6C3F1, females, site: lung, lesion: alveolar/bronchiolar adenoma + alveolar/bronchiolar carcinoma, dosed 95 weeks, study length 95 weeks",1010 mg/kg/day
same,TD50,"mouse, strain B6C3F1, females, site: pituitary gland, lesion: pars distalis adenoma, dosed 95 weeks, study length 95 weeks",1450 mg/kg/day
same,TD50,"mouse, strain B6C3F1, males, site: Harderian gland, lesion: adenoma + carcinoma, dosed 95 weeks, study length 95 weeks",1270 mg/kg/day
same,TD50,"mouse, strain B6C3F1, males, site: Harderian gland, lesion: adenoma, dosed 95 weeks, study length 95 weeks",1390 mg/kg/day
same,TD50,"mouse, strain B6C3F1, males, site: all sites + liver, lesion: histiocytic sarcoma + hemangioma + hemangiosarcoma + hepatocellular adenoma + hepatocellular carcinoma, dosed 95 weeks, study length 95 weeks",71.6 mg/kg/day
same,TD50,"mouse, strain B6C3F1, males, site: all sites, lesion: hemangioma + hemangiosarcoma, dosed 95 weeks, study length 95 weeks",88.3 mg/kg/day
same,TD50,"mouse, strain B6C3F1, males, site: all sites, lesion: hemangioma, dosed 95 weeks, study length 95 weeks",297 mg/kg/day
same,TD50,"mouse, strain B6C3F1, males, site: all sites, lesion: hemangiosarcoma, dosed 95 weeks, study length 95 weeks",109 mg/kg/day
same,TD50,"mouse, strain B6C3F1, males, site: all sites, lesion: histiocytic sarcoma, dosed 95 weeks, study length 95 weeks",429 mg/kg/day
same,TD50,"mouse, strain B6C3F1, males, site: any site (literature study), lesion: several types, types named in the paper, dosed 95 weeks, study length 95 weeks",69.9 mg/kg/day
same,TD50,"mouse, strain B6C3F1, males, site: liver, lesion: hemangioma + hemangiosarcoma, dosed 95 weeks, study length 95 weeks",87 mg/kg/day
same,TD50,"mouse, strain B6C3F1, males, site: liver, lesion: hemangioma, dosed 95 weeks, study length 95 weeks",308 mg/kg/day
same,TD50,"mouse, strain B6C3F1, males, site: liver, lesion: hemangiosarcoma, dosed 95 weeks, study length 95 weeks",108 mg/kg/day
same,TD50,"mouse, strain B6C3F1, males, site: liver, lesion: hepatocellular adenoma + hepatoblastoma + hepatocellular carcinoma, dosed 95 weeks, study length 95 weeks",91 mg/kg/day
same,TD50,"mouse, strain B6C3F1, males, site: liver, lesion: hepatocellular adenoma + hepatocellular carcinoma, dosed 95 weeks, study length 95 weeks",91 mg/kg/day
same,TD50,"mouse, strain B6C3F1, males, site: liver, lesion: hepatocellular adenoma, dosed 95 weeks, study length 95 weeks",222 mg/kg/day
same,TD50,"mouse, strain B6C3F1, males, site: liver, lesion: hepatocellular carcinoma, dosed 95 weeks, study length 95 weeks",190 mg/kg/day
same,TD50,"mouse, strain B6C3F1, males, site: lung, lesion: alveolar/bronchiolar adenoma + alveolar/bronchiolar carcinoma + carcinoma, dosed 95 weeks, study length 95 weeks",216 mg/kg/day
same,TD50,"mouse, strain B6C3F1, males, site: lung, lesion: alveolar/bronchiolar adenoma + alveolar/bronchiolar carcinoma, dosed 95 weeks, study length 95 weeks",220 mg/kg/day
same,TD50,"mouse, strain B6C3F1, males, site: lung, lesion: alveolar/bronchiolar adenoma, dosed 95 weeks, study length 95 weeks",348 mg/kg/day
same,TD50,"mouse, strain B6C3F1, males, site: lung, lesion: alveolar/bronchiolar carcinoma + carcinoma, dosed 95 weeks, study length 95 weeks",830 mg/kg/day
same,TD50,"mouse, strain B6C3F1, males, site: thyroid gland, lesion: follicular-cell adenoma + follicular-cell carcinoma, dosed 95 weeks, study length 95 weeks",988 mg/kg/day
same,TD50,"mouse, strain B6C3F1, males, site: thyroid gland, lesion: follicular-cell adenoma, dosed 95 weeks, study length 95 weeks",1440 mg/kg/day
same,TD50,"rat, strain Fischer 344, females, site: all sites + liver, lesion: mononuclear-cell leukemia + hemangiosarcoma + hepatocellular adenoma + hepatocellular carcinoma, dosed 103 weeks, study length 104 weeks",56.3 mg/kg/day
same,TD50,"rat, strain Fischer 344, females, site: all sites, lesion: hemangiosarcoma, dosed 103 weeks, study length 104 weeks",886 mg/kg/day
same,TD50,"rat, strain Fischer 344, females, site: all sites, lesion: mononuclear-cell leukemia, dosed 103 weeks, study length 104 weeks",228 mg/kg/day
same,TD50,"rat, strain Fischer 344, females, site: any site (literature study), lesion: several types, types named in the paper, dosed 103 weeks, study length 104 weeks",287 mg/kg/day
same,TD50,"rat, strain Fischer 344, females, site: kidney, lesion: tubule adenoma + tubule carcinoma, dosed 103 weeks, study length 104 weeks",958 mg/kg/day and 1310 mg/kg/day
same,TD50,"rat, strain Fischer 344, females, site: kidney, lesion: tubule adenoma, dosed 103 weeks, study length 104 weeks",1510 mg/kg/day
same,TD50,"rat, strain Fischer 344, females, site: kidney, lesion: tubule carcinoma, dosed 103 weeks, study length 104 weeks",7380 mg/kg/day
same,TD50,"rat, strain Fischer 344, females, site: liver, lesion: hemangiosarcoma, dosed 103 weeks, study length 104 weeks",886 mg/kg/day
same,TD50,"rat, strain Fischer 344, females, site: liver, lesion: hepatocellular adenoma + hepatoblastoma + hepatocellular carcinoma, dosed 103 weeks, study length 104 weeks",156 mg/kg/day
same,TD50,"rat, strain Fischer 344, females, site: liver, lesion: hepatocellular adenoma + hepatocellular carcinoma, dosed 103 weeks, study length 104 weeks",156 mg/kg/day
same,TD50,"rat, strain Fischer 344, females, site: liver, lesion: hepatocellular adenoma, dosed 103 weeks, study length 104 weeks",528 mg/kg/day
same,TD50,"rat, strain Fischer 344, females, site: liver, lesion: hepatocellular carcinoma, dosed 103 weeks, study length 104 weeks",251 mg/kg/day
same,TD50,"rat, strain Fischer 344, males, site: all sites, lesion: mononuclear-cell leukemia, dosed 103 weeks, study length 104 weeks",59.7 mg/kg/day
same,TD50,"rat, strain Fischer 344, males, site: any site (literature study), lesion: several types, types named in the paper, dosed 103 weeks, study length 104 weeks",35.4 mg/kg/day
same,TD50,"rat, strain Fischer 344, males, site: kidney, lesion: renal tubule adenoma, bilateral + tubule adenoma + tubule carcinoma, dosed 103 weeks, study length 104 weeks",292 mg/kg/day and 367 mg/kg/day
same,TD50,"rat, strain Fischer 344, males, site: kidney, lesion: renal tubule adenoma, bilateral + tubule adenoma, dosed 103 weeks, study length 104 weeks",242 mg/kg/day and 334 mg/kg/day
same,TD50,"rat, strain Fischer 344, males, site: liver, lesion: hepatocellular adenoma + hepatoblastoma + hepatocellular carcinoma, dosed 103 weeks, study length 104 weeks",81.6 mg/kg/day
same,TD50,"rat, strain Fischer 344, males, site: liver, lesion: hepatocellular adenoma + hepatocellular carcinoma, dosed 103 weeks, study length 104 weeks",81.6 mg/kg/day
same,TD50,"rat, strain Fischer 344, males, site: liver, lesion: hepatocellular adenoma, dosed 103 weeks, study length 104 weeks",136 mg/kg/day
same,TD50,"rat, strain Fischer 344, males, site: liver, lesion: hepatocellular carcinoma, dosed 103 weeks, study length 104 weeks",163 mg/kg/day
same,TD50,"rat, strain Fischer 344, males, site: testis, lesion: interstitial-cell adenoma, bilateral + interstitial-cell adenoma, dosed 103 weeks, study length 104 weeks",27.5 mg/kg/day
